# Experimental data reported in ChEMBL document CHEMBL1201862, “PubChem BioAssay data set” (2004).
# The source made the active and inactive calls.
# What was measured:
# [1] = biological target: 26S proteasome non-ATPase regulatory subunit 14 (Homo sapiens, UniProt O00487); assay: inhibition of proteasome subunit RPN11 – biochemical, fluorescence polarization, uHTS hits, confirmation (AID 602368); type: functional
# [2] = biological target: 72 kDa type IV collagenase (Homo sapiens, UniProt P08253); assay: Dose Response validation of uHTS RPN11 inhibitor hits using a MMP-2 Fluorescence assay.; type: functional
# Protein RecA = biological target: T1, Protein RecA (Mycobacterium tuberculosis, UniProt P9WHJ3); assay: Fluorescence Cell-Free Homogeneous Dose Retest to Identify Inhibitors of RecA-Intein Splicing Activity. [Related pubchem assays (depositor defined):AID2097, AID2223, AID489010, AID492950]; type: functional
# T1 sequence (P9WHJ3 whole entry): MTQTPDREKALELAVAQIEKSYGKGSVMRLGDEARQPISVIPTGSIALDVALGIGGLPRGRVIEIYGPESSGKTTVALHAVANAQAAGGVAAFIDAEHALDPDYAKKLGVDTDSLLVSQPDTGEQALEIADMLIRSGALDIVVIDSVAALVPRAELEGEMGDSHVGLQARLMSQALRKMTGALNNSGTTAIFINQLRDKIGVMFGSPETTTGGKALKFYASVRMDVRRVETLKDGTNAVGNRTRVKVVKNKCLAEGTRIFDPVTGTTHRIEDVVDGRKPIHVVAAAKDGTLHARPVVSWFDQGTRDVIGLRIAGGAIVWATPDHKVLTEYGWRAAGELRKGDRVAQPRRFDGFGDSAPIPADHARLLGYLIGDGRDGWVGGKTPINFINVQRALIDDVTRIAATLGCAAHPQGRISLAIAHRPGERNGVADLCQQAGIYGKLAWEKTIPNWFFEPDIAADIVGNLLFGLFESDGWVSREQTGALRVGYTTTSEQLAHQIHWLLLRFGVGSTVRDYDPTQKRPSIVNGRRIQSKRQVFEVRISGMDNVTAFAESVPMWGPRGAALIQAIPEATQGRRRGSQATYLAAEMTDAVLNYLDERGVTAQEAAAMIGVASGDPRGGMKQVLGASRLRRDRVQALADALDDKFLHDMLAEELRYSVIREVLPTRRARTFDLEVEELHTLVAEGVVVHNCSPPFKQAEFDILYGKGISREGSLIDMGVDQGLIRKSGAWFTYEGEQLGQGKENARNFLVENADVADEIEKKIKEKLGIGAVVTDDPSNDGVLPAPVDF
# Prothrombin = Prothrombin (Bos taurus, UniProt P00735); assay: thrombin inhibition, dose response, biochemical, fluorescence polarization, uHTS hits (AID 602369); type: functional
# [3] = cytotoxicity toward NIH3T3 fibroblasts, dose response, counter-screen, cell-based, ATP luminescence, mouse fibroblasts (AID 2010); type: functional;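 note: cells exposed to compound for about 90 hours before reading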
# [4] = inhibitors of intracellular T. cruzi replication, confirmation, NIH3T3 host cells, beta-gal luminescence (AID 2044); type: functional, cell-based;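 note: intracellular parasites grown in NIH/3T3 mouse fibroblasts as host cells; luminescent beta-galactosidase reporter signal from transgenic T. cruzi replicating inside host cells; inhibitors lower the luminescence signal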
# [5] = test system: Streptococcus sp. 'group A'; assay: growth inhibition of control SK(-) GAS strain, dose response, counter-screen for streptokinase expression inhibitor project, luminescence, kanamycin, BacTiterGlo, confirmation (AID 1900); type: functional, organism-based
# Streptococcus = assay: Group A Streptococcus viability loss, dose response, counter-screen for streptokinase expression inhibitor project, luminescence, BacTiterGlo (AID 1915); type: functional, organism-based;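 note: potency for reduction of bacterial viability or growth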
# Streptokinase A = biological target: T2, Streptokinase A (Streptococcus pyogenes serotype M1, UniProt P10520); assay: S. pyogenes streptokinase expression inhibitors, potency, dose response, plasminogen activation absorbance, OD405 (AID 1914); type: functional, Streptococcus pyogenes M1 GAS;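 note: secreted streptokinase activity via plasminogen activation per viability signal from cell pellet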
# T2 sequence (P10520 whole entry): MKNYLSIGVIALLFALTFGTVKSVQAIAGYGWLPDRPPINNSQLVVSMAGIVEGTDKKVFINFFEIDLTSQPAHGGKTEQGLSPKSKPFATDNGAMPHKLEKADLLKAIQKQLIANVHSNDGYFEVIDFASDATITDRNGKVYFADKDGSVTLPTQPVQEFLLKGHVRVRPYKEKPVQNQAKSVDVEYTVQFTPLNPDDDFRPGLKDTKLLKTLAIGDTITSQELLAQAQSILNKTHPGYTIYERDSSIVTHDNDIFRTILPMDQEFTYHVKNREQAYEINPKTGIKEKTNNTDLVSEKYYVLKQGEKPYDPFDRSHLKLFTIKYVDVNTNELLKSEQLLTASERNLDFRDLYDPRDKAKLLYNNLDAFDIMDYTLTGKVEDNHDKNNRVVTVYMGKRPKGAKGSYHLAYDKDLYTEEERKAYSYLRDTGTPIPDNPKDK
# [6] = biological target: T3, Replicative DNA helicase DnaB (Mycobacterium tuberculosis, UniProt P9WMR3); assay: DnaB intein splicing inhibitors, dose response, biochemical, cell-free fluorescence (AID 449749); type: functional
# T3 sequence (P9WMR3 whole entry): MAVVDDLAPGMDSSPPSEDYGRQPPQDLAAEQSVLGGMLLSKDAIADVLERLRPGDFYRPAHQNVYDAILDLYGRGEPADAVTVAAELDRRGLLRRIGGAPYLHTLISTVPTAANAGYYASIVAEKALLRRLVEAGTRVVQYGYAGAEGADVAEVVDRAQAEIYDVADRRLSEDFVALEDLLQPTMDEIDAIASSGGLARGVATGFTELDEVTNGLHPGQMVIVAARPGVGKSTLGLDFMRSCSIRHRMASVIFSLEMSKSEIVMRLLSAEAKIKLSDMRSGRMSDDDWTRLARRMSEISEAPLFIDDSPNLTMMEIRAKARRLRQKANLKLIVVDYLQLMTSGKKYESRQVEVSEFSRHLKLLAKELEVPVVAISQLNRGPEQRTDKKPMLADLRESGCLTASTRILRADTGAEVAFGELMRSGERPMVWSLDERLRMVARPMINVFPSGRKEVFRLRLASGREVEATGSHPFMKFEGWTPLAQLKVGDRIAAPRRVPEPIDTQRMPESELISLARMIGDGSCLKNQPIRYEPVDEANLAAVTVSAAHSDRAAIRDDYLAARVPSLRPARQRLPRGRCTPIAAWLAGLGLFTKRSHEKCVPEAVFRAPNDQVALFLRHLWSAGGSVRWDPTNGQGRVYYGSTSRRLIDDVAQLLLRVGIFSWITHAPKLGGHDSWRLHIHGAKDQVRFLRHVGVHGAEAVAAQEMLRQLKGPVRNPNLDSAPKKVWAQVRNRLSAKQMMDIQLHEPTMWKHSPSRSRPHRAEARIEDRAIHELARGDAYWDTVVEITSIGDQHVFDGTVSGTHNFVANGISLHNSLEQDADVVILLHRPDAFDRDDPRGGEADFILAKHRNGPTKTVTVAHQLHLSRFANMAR
# BJ [7] = assay: cytotoxicity toward BJ-TERT-LT-ST fibroblasts, dose response, cell-based, RAS-independent, luminescence (AID 1935); type: functional; conditions: Homo sapiens;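 note: BJ fibroblasts immortalized with TERT plus LT and ST oncogenes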
# [8] = Luminescence Cell-Based Dose Response HTS to Identify Inhibitors of 5'UTR Stem-Loop Driven Prion Protein mRNA Translation in H4 Neuroglioblastoma Cells. [Related pubchem assays: 1827 (Project Summary), 1813 (Primary HTS)]; type: functional
# [9] = biological target: Hepatocyte nuclear factor 4-alpha (Homo sapiens, UniProt P41235); type: functional, cell-based;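 note: biochemical luminescence-based dose-response counterscreen measuring inhibition of HNF4 dimerization, run alongside a screen for blockers of ABHD5–perilipin-5 interaction; split luciferase complementation of HNF4 fusion proteins in cell lysate measuring dimerization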
# [10] = inhibitors of SNCA 5'UTR-driven reporter translation, confirmation, H4 neuroglioma cells, luminescence (AID 1988); type: functional, cell-based
# [11] = biological target: Heat shock protein HSP 90-alpha (Homo sapiens, UniProt P07900); type: functional, organism-based
# [12] = C. albicans growth with fluconazole, confirmation, fluorescence, retest (AID 2467); type: functional, cell-based
# [13] = NIH-3T3 fibroblast cytotoxicity, dose response, cytotoxicity control, cell-based, fluorescence, Alamar Blue, secondary assay (AID 2327); type: functional;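 note: NIH-3T3 mouse fibroblasts cultured with fluconazole at 8 µg/mL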
# NS3 = NS3 (Hepatitis C virus, UniProt A3EZJ3); assay: PubChem AID 2173; parameters: species or system Hepacivirus hominis
# BJ [14] = assay: cytotoxicity toward BJ-TERT fibroblasts, dose response, cell-based, RAS-independent, luminescence (AID 1933); type: functional; conditions: Homo sapiens
# [15] = cytotoxicity toward DRD oncogenic fibroblasts, dose response, cell-based, non-viral oncogenic, luminescence (AID 1934); type: functional; conditions: Homo sapiens
# [16] = inhibitors of firefly luciferase expression or activity, dose response, H4 neuroglioma cells, luminescence (AID 1990); type: functional, cell-based
# BJ [17] = assay: cells; type: functional, cell-based; conditions: Homo sapiens
# [18] = biological target: 5-hydroxytryptamine receptor 5A (Homo sapiens, UniProt P47898); assay: Counterscreen for agonists of OPRM1-OPRD1 heterodimerization: luminescence-based cell-based high throughput dose response assay to identify agonists of 5-hydroxytryptamine (serotonin) 5A receptor (HTR5A). [Related pubchem assays (depositor defined):AID504326, AID504355, AID504692, AID504904, AID504905]; type: functional
# [19] = control 3'UTR Renilla luciferase suppression, dose response, counter-screen for Shn3 inhibitor project, cell-based, Clone20-Shn3RL, cherry-picked (AID 624133); type: functional
# [20] = Shn3 3'UTR reporter inhibitors, dose response, cell-based, Clone20 osteoblasts, firefly luciferase, cherry-picked (AID 624132); type: functional;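 note: firefly luciferase luminescence from reporter carrying the Shn3 3'UTR in osteoblasts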
# Nonstructural protein 1 = Nonstructural protein 1 (Influenza A virus, UniProt Q194T2); type: functional, Influenza A virus (A/California/07/2009(H1N1))
# [21] = biological target: Ras and Rab interactor 1/Tyrosine-protein kinase ABL1 (Homo sapiens, UniProt P00519+Q13671); type: functional;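 note: biochemical TR-FRET dose-response test measuring inhibition of binding between Rin1 and Abl proteins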
# [22] = biological target: Delta-type opioid receptor (Homo sapiens, UniProt P41143); assay: Counterscreen for agonists of heterodimerization of the mu 1 (OPRM1) and delta 1 (OPRD1) opioid receptors: Luminescence-based cell-based high throughput dose response assay to identify agonists of OPRD1 homodimerization. [Related pubchem assays (depositor defined):AID504326, AID504355, AID504692, AID504904, AID504905]; type: functional
# [23] = HepG2 cell cytotoxicity, dose response, cytotoxicity control for Shn3 inhibitor project, CellTiter-Glo, cherry-picked (AID 624134); type: functional, cell-based
# Mu-type opioid receptor = Mu-type opioid receptor (Homo sapiens, UniProt P35372); assay: Counterscreen for agonists of heterodimerization of the mu 1 (OPRM1) and delta 1 (OPRD1) opioid receptors: Luminescence-based cell-based high throughput dose response assay to identify agonists of OPRM1 homodimerization.; type: functional;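 note: U2OS cells expressing OPRM1 and beta-arrestin as split beta-galactosidase partners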
# Chain of Mu-type opioid receptor (P35372 whole entry): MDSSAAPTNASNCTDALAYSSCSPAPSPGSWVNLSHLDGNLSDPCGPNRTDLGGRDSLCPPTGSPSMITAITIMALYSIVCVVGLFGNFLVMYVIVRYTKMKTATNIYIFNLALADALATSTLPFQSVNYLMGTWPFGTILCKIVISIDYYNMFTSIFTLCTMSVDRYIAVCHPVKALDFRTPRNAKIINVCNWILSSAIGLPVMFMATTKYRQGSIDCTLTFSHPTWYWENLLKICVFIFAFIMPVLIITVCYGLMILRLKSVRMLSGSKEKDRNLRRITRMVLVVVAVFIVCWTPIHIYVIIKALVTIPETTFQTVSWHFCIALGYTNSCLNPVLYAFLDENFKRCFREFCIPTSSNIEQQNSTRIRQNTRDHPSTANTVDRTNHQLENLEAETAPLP
# Chain of NS3 (A3EZJ3 whole entry): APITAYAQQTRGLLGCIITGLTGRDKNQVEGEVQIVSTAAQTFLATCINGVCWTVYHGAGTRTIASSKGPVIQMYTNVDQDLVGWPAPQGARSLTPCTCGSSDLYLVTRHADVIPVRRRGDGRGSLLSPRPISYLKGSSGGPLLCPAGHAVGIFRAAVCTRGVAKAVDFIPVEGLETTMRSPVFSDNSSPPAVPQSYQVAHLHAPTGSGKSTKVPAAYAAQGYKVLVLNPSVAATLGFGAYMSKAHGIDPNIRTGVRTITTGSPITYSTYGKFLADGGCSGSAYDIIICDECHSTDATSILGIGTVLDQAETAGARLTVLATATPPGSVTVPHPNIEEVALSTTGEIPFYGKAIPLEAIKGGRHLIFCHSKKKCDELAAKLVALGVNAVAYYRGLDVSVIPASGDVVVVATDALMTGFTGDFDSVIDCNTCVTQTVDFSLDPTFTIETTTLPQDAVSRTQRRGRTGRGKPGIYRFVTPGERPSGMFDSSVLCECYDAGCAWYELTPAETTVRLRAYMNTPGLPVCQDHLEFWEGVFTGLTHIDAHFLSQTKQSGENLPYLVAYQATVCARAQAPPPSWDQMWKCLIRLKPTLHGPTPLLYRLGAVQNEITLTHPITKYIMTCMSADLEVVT
# Chain of Nonstructural protein 1 (Q194T2 whole entry): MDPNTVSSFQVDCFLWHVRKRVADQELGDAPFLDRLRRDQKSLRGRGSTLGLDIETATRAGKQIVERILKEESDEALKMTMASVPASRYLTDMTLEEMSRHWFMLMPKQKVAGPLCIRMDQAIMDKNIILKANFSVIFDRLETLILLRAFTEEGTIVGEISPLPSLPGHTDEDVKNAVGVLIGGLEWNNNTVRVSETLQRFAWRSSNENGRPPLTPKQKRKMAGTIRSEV
# Chain of Ras and Rab interactor 1/Tyrosine-protein kinase ABL1 (P00519 whole entry): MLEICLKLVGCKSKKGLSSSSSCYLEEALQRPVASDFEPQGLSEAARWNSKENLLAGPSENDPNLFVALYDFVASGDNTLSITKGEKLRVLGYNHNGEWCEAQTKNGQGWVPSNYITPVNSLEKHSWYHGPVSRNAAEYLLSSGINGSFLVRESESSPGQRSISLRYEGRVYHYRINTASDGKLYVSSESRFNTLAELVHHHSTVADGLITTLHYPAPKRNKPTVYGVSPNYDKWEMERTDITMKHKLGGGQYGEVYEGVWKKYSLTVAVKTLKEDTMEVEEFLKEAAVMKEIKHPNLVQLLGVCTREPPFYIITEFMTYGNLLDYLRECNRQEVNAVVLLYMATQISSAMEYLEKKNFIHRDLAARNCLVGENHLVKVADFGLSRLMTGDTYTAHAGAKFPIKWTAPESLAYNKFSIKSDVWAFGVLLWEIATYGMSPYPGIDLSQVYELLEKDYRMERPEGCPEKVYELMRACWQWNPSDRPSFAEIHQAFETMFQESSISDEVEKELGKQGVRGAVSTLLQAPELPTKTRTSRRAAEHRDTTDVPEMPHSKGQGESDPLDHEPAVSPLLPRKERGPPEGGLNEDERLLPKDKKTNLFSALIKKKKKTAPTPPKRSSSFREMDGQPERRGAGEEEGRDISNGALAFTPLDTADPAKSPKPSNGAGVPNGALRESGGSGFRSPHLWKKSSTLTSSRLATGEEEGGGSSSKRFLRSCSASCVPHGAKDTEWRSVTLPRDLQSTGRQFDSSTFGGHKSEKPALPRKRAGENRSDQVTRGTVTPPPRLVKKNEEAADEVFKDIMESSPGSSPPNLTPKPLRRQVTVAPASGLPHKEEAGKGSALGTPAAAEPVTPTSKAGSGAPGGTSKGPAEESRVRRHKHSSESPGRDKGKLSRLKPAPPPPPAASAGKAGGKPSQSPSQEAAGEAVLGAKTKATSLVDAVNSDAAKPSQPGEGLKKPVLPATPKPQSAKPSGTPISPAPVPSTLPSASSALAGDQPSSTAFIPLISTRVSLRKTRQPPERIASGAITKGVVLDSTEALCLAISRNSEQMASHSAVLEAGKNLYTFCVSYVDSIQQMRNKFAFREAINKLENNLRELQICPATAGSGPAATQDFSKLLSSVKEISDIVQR
# Chain of Ras and Rab interactor 1/Tyrosine-protein kinase ABL1 (Q13671 whole entry): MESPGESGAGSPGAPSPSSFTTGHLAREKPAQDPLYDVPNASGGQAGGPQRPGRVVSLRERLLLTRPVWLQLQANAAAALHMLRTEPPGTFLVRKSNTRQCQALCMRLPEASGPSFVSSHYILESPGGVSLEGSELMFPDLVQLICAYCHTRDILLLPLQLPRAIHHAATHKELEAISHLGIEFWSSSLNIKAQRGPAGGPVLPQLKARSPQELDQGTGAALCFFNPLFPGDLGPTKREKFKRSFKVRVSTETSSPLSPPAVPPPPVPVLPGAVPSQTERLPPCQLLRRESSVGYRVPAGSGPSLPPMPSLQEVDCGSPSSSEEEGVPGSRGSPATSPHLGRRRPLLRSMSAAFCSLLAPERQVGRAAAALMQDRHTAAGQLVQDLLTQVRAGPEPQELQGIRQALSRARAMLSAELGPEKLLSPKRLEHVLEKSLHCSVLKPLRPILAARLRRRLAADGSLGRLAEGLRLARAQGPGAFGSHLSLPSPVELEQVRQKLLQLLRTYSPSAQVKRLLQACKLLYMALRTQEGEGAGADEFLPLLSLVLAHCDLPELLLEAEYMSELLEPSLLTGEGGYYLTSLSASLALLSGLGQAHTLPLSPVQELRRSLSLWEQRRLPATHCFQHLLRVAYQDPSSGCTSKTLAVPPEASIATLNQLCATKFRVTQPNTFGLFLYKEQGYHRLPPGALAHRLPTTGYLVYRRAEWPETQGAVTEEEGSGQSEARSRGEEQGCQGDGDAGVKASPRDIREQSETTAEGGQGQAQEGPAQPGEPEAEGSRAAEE
# Chain of Hepatocyte nuclear factor 4-alpha (P41235 whole entry, the tested form may be a part): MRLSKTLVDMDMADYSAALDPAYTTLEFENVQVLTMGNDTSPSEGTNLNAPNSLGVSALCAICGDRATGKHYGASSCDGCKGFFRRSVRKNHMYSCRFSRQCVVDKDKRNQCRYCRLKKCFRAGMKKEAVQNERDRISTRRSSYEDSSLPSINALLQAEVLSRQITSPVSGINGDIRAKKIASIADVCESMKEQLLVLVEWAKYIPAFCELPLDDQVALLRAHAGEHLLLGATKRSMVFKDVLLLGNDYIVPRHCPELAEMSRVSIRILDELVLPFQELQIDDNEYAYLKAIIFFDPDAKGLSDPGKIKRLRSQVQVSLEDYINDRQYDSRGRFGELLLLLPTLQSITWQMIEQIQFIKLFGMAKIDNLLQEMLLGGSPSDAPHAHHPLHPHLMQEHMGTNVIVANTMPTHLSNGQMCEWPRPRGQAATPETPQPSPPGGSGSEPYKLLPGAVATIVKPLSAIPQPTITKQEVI
# Chain of Delta-type opioid receptor (P41143 whole entry): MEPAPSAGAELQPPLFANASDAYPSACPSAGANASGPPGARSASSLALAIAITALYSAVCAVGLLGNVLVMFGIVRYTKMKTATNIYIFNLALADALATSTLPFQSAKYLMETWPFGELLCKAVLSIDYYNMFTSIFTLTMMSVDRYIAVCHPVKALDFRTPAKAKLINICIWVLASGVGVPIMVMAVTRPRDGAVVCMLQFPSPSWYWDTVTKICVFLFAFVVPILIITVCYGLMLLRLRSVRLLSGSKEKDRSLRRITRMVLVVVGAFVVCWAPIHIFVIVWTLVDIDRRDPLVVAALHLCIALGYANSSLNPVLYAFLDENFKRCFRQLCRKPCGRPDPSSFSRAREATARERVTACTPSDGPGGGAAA
# Chain of 5-hydroxytryptamine receptor 5A (P47898 whole entry): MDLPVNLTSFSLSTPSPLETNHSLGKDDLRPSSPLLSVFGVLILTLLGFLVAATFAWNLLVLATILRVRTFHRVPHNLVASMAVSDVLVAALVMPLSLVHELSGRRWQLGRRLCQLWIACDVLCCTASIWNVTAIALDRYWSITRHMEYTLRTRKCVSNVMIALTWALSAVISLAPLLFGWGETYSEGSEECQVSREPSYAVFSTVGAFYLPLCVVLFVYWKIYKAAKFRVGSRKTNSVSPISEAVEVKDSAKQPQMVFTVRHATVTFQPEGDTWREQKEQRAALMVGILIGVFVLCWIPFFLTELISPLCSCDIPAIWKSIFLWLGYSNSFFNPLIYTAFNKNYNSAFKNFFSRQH
# Chain of 26S proteasome non-ATPase regulatory subunit 14 (O00487 whole entry): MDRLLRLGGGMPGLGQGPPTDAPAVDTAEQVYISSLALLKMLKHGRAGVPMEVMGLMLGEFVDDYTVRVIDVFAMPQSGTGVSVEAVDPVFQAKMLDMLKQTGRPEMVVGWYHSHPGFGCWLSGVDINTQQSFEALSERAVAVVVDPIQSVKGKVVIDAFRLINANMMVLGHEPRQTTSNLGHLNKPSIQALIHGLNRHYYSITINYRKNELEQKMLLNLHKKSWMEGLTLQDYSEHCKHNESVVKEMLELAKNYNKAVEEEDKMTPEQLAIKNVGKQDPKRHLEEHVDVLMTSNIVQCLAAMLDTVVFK
compound,measurement,setting,value
Nc1c(-c2ccccc2)c(CSc2nc3ccccc3[nH]2)nn1-c1cccc(Cl)c1,IC50,[1],34 µM (active)
same,IC50,[2],> 100 µM (inactive)
same,EC50,Protein RecA,2.71 µM (active)
same,IC50,Prothrombin,41.5 µM (active)
same,EC50,[3],> 60 µM (not active)
same,EC50,[4],1.17 µM (active)
same,EC50,[5],2.14 µM (active)
same,EC50,Streptococcus,> 150 µM (not active)
same,EC50,Streptokinase A,> 150 µM (not active)
same,AC50,[6],3.17 µM (active)
Cc1ccc(C)c(/C=C/C(=O)c2ccccc(=O)c2O)c1,EC50,BJ [7],> 150 µM (not active)
same,EC50,[8],> 120 µM (not active)
same,IC50,[9],6.56 µM (active)
same,EC50,[3],8.18 µM (active)
same,EC50,[4],2.29 µM (active)
same,EC50,[10],12.7 µM (active)
same,EC50,[5],1.41 µM (active)
same,EC50,Streptococcus,5 µM (active)
same,AC50,[11],2.42 µM (active)
same,EC50,[12],1.47 µM (active)
same,EC50,[13],> 150 µM (inactive)
same,IC50,NS3,2.52 µM (active)
same,EC50,BJ [14],17.2 µM (inconclusive)
same,EC50,[15],56.8 µM (inconclusive)
same,EC50,[16],13.9 µM (active)
same,EC50,BJ [17],14.4 µM (active)
Cc1nc2nc(C)n(CCN3CCOCC3)c(=O)c2c(-c2cccc([N+](=O)[O-])c2)c1C(=O)CCCCCCCCCCN1CCC(c2ccccc2)(c2ccccc2)CC1,EC50,[18],> 92.4 µM (inactive)
same,AC50,[19],11.3 µM (active)
same,AC50,[20],7.38 µM (active)
same,IC50,Nonstructural protein 1,21.9 µM (active)
same,IC50,[21],1.35 µM (active)
same,EC50,[22],> 92.4 µM (inactive)
same,AC50,[23],14.7 µM (active)
same,EC50,Mu-type opioid receptor,> 92.4 µM (inactive)
